In PubChem BioAssay AID2060512 (Molecular Pharmacology Branch, DTP, NCI, 2025):
Values joined by “and” are separate entries in the source; they are usually repeats but may differ in a detail not shown here. Equal values may be shown once.

Tested on: 186277-243-T-J2-PDC complex spheroid viability
Test: Anticancer human tumor 186277-243-T-J2-PDC patient-derived colon adenocarcinoma cell line growth inhibition [GQUAD]
Settings: for viability, T/C: stronger effect = lower value
Excerpt: DNA G-quadruplex Stabilizer Agents in Combinations in Complex Spheroids
A high-throughput screen of multi-cell type tumor spheroids was designed to identify active combinations of DNA G-quadruplex stabilizer agents and targeted small molecules. Complex spheroids include a stromal component modeled by human endothelial cells (HUVEC) and fibroblasts modeled by human mesenchymal stem cells (MSCs). The concentration ranges selected for each drug and investigational agent were based upon clinically achievable concentrations if the clinical Cmax of the agent was known.
Compounds. The drugs and investigational agents: pidnarulex (CX-5461; NSC782164), APTO-253 (NSC789042), BRACO-19 (NSC847499), peposertib (NSC802822), ceralasertib (NSC780249), elimusertib (NSC800525), camonsertib (NSC841442), AZD-1390 (NSC803789), olaparib (NSC753686), talazoparib (NSC767125), ART-558 (NSC835418), sotorasib (NSC818433), MRTX-1133 (NSC836407), SN-38 (NSC673596), topotecan (NSC609699), etoposide (NSC141540), doxorubicin (NSC123127), gemcitabine (NSC613327), 5-fluorouracil (NSC19893), paclitaxel (NSC125973), vemurafenib (NSC761431), panobinostat (NSC761190), R-306465 (JNJ-16241199; NSC773264), adavosertib (NSC754352), TP-3654 (NSC805149), carboplatin (NSC241240), KSQ-4279 (NSC840948), and staurosporine (NSC755774) were obtained from the National Cancer Institute (NCI) Developmental Therapeutics Program Chemical Repository (34). The FDA-approved anticancer drug set is available from the NCI Developmental Therapeutics Program. […] The stock solutions were prepared in dimethyl sulfoxide (DMSO, Sigma-Aldrich, St. Louis, MO, cat. D2650) at 800-fold the tested concentration and stored at -70 degrees C prior to their use. All drugs and investigational agents were tested over a range starting from a high concentration at or near the clinical Cmax and decreasing in half-log increments. If the clinical Cmax for an agent had not been determined, the highest concentration tested was 10 microM.
2.3 Cell Culture. All cells were maintained in an incubator at 37 degrees C and 5% CO2 with 95% humidity. The PDC lines were cultured according to standard operating procedures established by the NCI PDMR. All PDCs were thawed and cultured in Matrigel-coated flasks prepared with a working solution of 1X Ham's F-12 nutrient mix, without supplementation (Invitrogen, cat. 11765054), 100 U/mL penicillin-streptomycin (Invitrogen, cat. 15140122), and 2.5% Matrigel (Corning Inc., cat. 354248) for the first three passages. The 857933-349-R-J2-PDC line was cultured in 6C/Colon 1B media, which includes advanced DMEM/F-12 (Thermo Fisher Scientific, cat. 12634028), 10 mM HEPES (Thermo Fisher Scientific, cat. 15630080), 1X GlutaMAX supplement (Thermo Fisher Scientific, cat. 35050061), 0.1 mg/mL primocin (InvivoGen, cat. ant-pm-2), 10% defined fetal bovine serum, heat inactivated (HyClone Laboratories Inc., cat. SH30070.03HI), 50% L-WRN conditioned media (ATCC, cat. CRL-3276), 1.25 mM N-Acetyl-L-cysteine (Sigma-Aldrich, cat. A9165), 10 mM nicotinamide (Sigma-Aldrich, cat. N0636), 1X B-27 supplement (Thermo Fisher Scientific, cat. 17504044), 1X N-2 supplement (Thermo Fisher Scientific, cat. 17502048), 10 microM Y-27632 dihydrochloride (Tocris Bioscience, cat. 1254), and 50 ng/mL human EGF recombinant protein (Thermo Fisher Scientific, cat. PHG0311). The 485176-168-R4-J1-PDC line was cultured in Panc media, which includes all 6C/Colon 1B media components plus 100 ng/mL human FGF-10 (Thermo Fisher Scientific, cat. 100-26), 500 nM SB-431542 (Selleckchem, cat. S1067), and gastrin (Tocris, cat. 3006).
[…]

[1] = curve of first compound, second compound 0.0316 µM
[2] = curve of first compound, second compound 0.1 µM
[3] = curve of first compound, second compound 0.316 µM
[4] = curve of first compound, second compound 1 µM
[5] = curve of first compound, second compound 3.16 µM
[6] = curve of first compound, second compound 10 µM
[7] = second compound 0.0316 µM, first compound 0.0316 µM
[8] = second compound 0.0316 µM, first compound 0.1 µM
[9] = second compound 0.0316 µM, first compound 0.316 µM
[10] = second compound 0.0316 µM, first compound 1 µM
[11] = second compound 0.0316 µM, first compound 3.16 µM
[12] = second compound 0.0316 µM, first compound 10 µM
[13] = second compound 0.1 µM, first compound 0.0316 µM
[14] = second compound 0.1 µM, first compound 0.1 µM
[15] = second compound 0.1 µM, first compound 0.316 µM
[16] = second compound 0.1 µM, first compound 1 µM
[17] = second compound 0.1 µM, first compound 3.16 µM
[18] = second compound 0.1 µM, first compound 10 µM
[19] = second compound 0.316 µM, first compound 0.0316 µM
[20] = second compound 0.316 µM, first compound 0.1 µM
[21] = second compound 0.316 µM, first compound 0.316 µM
[22] = second compound 0.316 µM, first compound 1 µM
[23] = second compound 0.316 µM, first compound 3.16 µM
[24] = second compound 0.316 µM, first compound 10 µM
[25] = second compound 1 µM, first compound 0.0316 µM
[26] = second compound 1 µM, first compound 0.1 µM
[27] = second compound 1 µM, first compound 0.316 µM
[28] = second compound 1 µM, first compound 1 µM
[29] = second compound 1 µM, first compound 3.16 µM
[30] = second compound 1 µM, first compound 10 µM
[31] = second compound 3.16 µM, first compound 0.0316 µM
[32] = second compound 3.16 µM, first compound 0.1 µM
[33] = second compound 3.16 µM, first compound 0.316 µM
[34] = second compound 3.16 µM, first compound 1 µM
[35] = second compound 3.16 µM, first compound 3.16 µM
[36] = second compound 3.16 µM, first compound 10 µM
[37] = second compound 10 µM, first compound 0.0316 µM
[38] = second compound 10 µM, first compound 0.1 µM
[39] = second compound 10 µM, first compound 0.316 µM
[40] = second compound 10 µM, first compound 1 µM
[41] = second compound 10 µM, first compound 3.16 µM
[42] = second compound 10 µM, first compound 10 µM
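Note: spheroids exposed to drugs for 7 days.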
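Throughout, for viability, T/C: 100% = DMSO vehicle control viability.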

With `COc1ncnc(C2CC2)c1-c1ncc2cnn(Cc3ccc(-c4nc(C(F)(F)F)cn4C(C)C)cc3)c2n1` + Cc1[nH]c2ccc(F)cc2c1-c1nc2c3cccnc3c3ncccc3c2[nH]1 the IC50 [1] was > 10000 nM, the IC50 [2] was > 10000 nM and the IC50 [3] was > 10000 nM. For the same molecule, the IC50 [4] was > 10000 nM, the IC50 [5] was > 10000 nM and the IC50 [6] was > 10000 nM. The viability, T/C [7] was 116%, the viability, T/C [8] was 91.6% and the viability, T/C [9] was 95.1%. The viability, T/C [10] was 84.4%, the viability, T/C [11] was 111% and the viability, T/C [12] was 97.4%. It also gave a viability, T/C [13] of 87.5%, a viability, T/C [14] of 98.7% and a viability, T/C [15] of 99.8%. It also gave a viability, T/C [16] of 95.2%, a viability, T/C [17] of 112% and a viability, T/C [18] of 86.2%. The viability, T/C [19] was 104%, the viability, T/C [20] was 95.7% and the viability, T/C [21] was 94.2%. It also gave a viability, T/C [22] of 111%, a viability, T/C [23] of 108% and a viability, T/C [24] of 96%. For the same molecule, the viability, T/C [25] was 92.5%, the viability, T/C [26] was 105% and the viability, T/C [27] was 107%. For the same molecule, the viability, T/C [28] was 93.9%, the viability, T/C [29] was 116% and the viability, T/C [30] was 104%. For the same molecule, the viability, T/C [31] was 103%, the viability, T/C [32] was 115% and the viability, T/C [33] was 97.3%. The viability, T/C [34] was 102%, the viability, T/C [35] was 99.9% and the viability, T/C [36] was 89.9%. For the same molecule, the viability, T/C [37] was 105%, the viability, T/C [38] was 101% and the viability, T/C [39] was 99.1%. For the same molecule, the viability, T/C [40] was 94.4%, the viability, T/C [41] was 113% and the viability, T/C [42] was 97%.

For `Nc1ccn(C2OC(CO)C(O)C2(F)F)c(=O)n1` (stereo not given), the viability, T/C (compound 0.0316 µM) was 17% and 8.09% and 31%, the viability, T/C (compound 0.1 µM) was 11.1% and 8.48% and 13.3% and the viability, T/C (compound 0.316 µM) was 11.3% and 9.27% and 10.2%. For the same molecule, the viability, T/C (compound 1 µM) was 11.5% and 8.56% and 11.1%, the viability, T/C (compound 3.16 µM) was 12.8% and 8.21% and 8.72% and the viability, T/C (compound 10 µM) was 10.8% and 8.32% and 10.6%. For the same molecule, the IC50 (curve of compound) was < 31.6 nM.

`CC(=O)O[C@H]1C(=O)[C@@]2(C)[C@H]([C@H](OC(=O)c3ccccc3)[C@]3(O)C[C@H](OC(=O)[C@H](O)[C@@H](NC(=O)c4ccccc4)c4ccccc4)C(C)=C1C3(C)C)[C@]1(OC(C)=O)CO[C@@H]1C[C@@H]2O` was tested, and the viability, T/C (compound 0.0316 µM) was 11.9% and 17.4% and 29%, the viability, T/C (compound 0.1 µM) was 4.45% and 7.62% and 9.72% and the viability, T/C (compound 0.316 µM) was 5.05% and 6.94% and 9.26%. The viability, T/C (compound 1 µM) was 5.03% and 4.51% and 8.19%, the viability, T/C (compound 3.16 µM) was 4.85% and 4.62% and 5.67% and the viability, T/C (compound 10 µM) was 4.7% and 4.26% and 6.48%. For the same molecule, the IC50 (curve of compound) was < 31.6 nM.

With `CC1COCCN1c1cc(-c2ccnn2C)c2ccnc(-c3ccn[nH]3)c2n1` (stereo not given) the viability, T/C (compound 0.0316 µM) was 81.1% and 73.3% and 66.4%, the viability, T/C (compound 0.1 µM) was 12.5% and 11.9% and 12.3% and the viability, T/C (compound 0.316 µM) was 7.41% and 7.05% and 7.85%. The viability, T/C (compound 1 µM) was 5.96% and 5.12% and 5.67%, the viability, T/C (compound 3.16 µM) was 5.8% and 4.75% and 4.94% and the viability, T/C (compound 10 µM) was 7.05% and 4.45% and 5.66%. For the same molecule, the IC50 (curve of compound) was 53.3 nM and 48.9 nM and 44.7 nM.

With `C=CCn1c(=O)c2cnc(Nc3ccc(N4CCN(C)CC4)cc3)nc2n1-c1cccc(C(C)(C)O)n1` + Cc1cnc(CNC(=O)c2c(=O)c3ccc(N4CCCN(C)CC4)nc3n3c2sc2ccccc23)cn1 the IC50 [1] was 117 nM, the IC50 [2] was < 31.6 nM and the IC50 [3] was 35.1 nM. The IC50 [4] was < 31.6 nM, the IC50 [5] was < 31.6 nM and the IC50 [6] was < 31.6 nM. The viability, T/C [7] was 93.8%, the viability, T/C [8] was 54.3% and the viability, T/C [9] was 22%. It also gave a viability, T/C [10] of 10.2%, a viability, T/C [11] of 12.2% and a viability, T/C [12] of 15.5%. The viability, T/C [13] was 49.1%, the viability, T/C [14] was 44.2% and the viability, T/C [15] was 25.8%. It also gave a viability, T/C [16] of 14.7%, a viability, T/C [17] of 13.8% and a viability, T/C [18] of 20.5%. It also gave a viability, T/C [19] of 51.8%, a viability, T/C [20] of 46.4% and a viability, T/C [21] of 33.5%. For the same molecule, the viability, T/C [22] was 17.6%, the viability, T/C [23] was 17.8% and the viability, T/C [24] was 24.1%. It also gave a viability, T/C [25] of 27.7%, a viability, T/C [26] of 35.9% and a viability, T/C [27] of 30.5%. The viability, T/C [28] was 24.4%, the viability, T/C [29] was 23.5% and the viability, T/C [30] was 26.4%. It also gave a viability, T/C [31] of 34.5%, a viability, T/C [32] of 31.7% and a viability, T/C [33] of 34.5%. It also gave a viability, T/C [34] of 21.9%, a viability, T/C [35] of 23.4% and a viability, T/C [36] of 22.6%. For the same molecule, the viability, T/C [37] was 31.8%, the viability, T/C [38] was 31.6% and the viability, T/C [39] was 31.5%. The viability, T/C [40] was 22.9%, the viability, T/C [41] was 22.8% and the viability, T/C [42] was 24.4%.
